Reference: EP4151631A1, “HETEROCYCLIC COMPOUNDS FOR THE CONTROL OF INVERTEBRATE PESTS” (BASF SE, priority 2021, dated 2023)

Tests used:
Spodoptera eridania = test: Southern armyworm foliar spray test on lima bean plants; type: in vivo; conditions: 96 h, 2nd instar larvae on sprayed lima bean plants, 4 days after treatment, read-out: mortality in comparison with untreated controls
Description: The active compounds were formulated by a Tecan liquid handler in 100% cyclohexanone as a 10,000 ppm solution supplied in tubes. The 10,000 ppm solution was serially diluted in 100% cyclohexanone to make interim solutions. These served as stock solutions for which final dilutions were made by the Tecan in 50% acetone:50% water (v/v) into 10 or 20ml glass vials. A nonionic surfactant (Kinetic®) was included in the solution at a volume of 0.01% (v/v). The vials were then inserted into an automated electrostatic sprayer equipped with an atomizing nozzle for application to plants/insects. Lima bean plants (variety Sieva) were grown 2 plants to a pot and selected for treatment at the 1st true leaf stage. Test solutions were sprayed onto the foliage by an automated electrostatic plant sprayer equipped with an atomizing spray nozzle. The plants were dried in the sprayer fume hood and then removed from the sprayer. Each pot was placed into perforated plastic bags with a zip closure. Ten to 11 armyworm larvae were placed into the bag and the bags zipped closed. Test plants were maintained in a growth room at about 25°C and about 20-40% relative humidity for 4 days, avoiding direct exposure to fluorescent light (14:10 light:dark photoperiod) to prevent trapping of heat inside the bags. Mortality and reduced feeding were assessed 4 days after treatment, compared to untreated control plants.

Plutella xylostella = test: Diamond back moth leaf-dip test on cabbage leaves; type: in vivo; conditions: 3rd instar larvae on dipped cabbage leaves, 72 hours after treatment, read-out: mortality in comparison with untreated controls
Description: The active compound was dissolved at the desired concentration in a mixture of 1:1 (vol:vol) distilled water: acetone. Surfactant (Kinetic HV) was added at a rate of 0.01% (vol/vol). The test solution was prepared on the day of use.
Leaves of cabbage were dipped in test solution and air-dried. Treated leaves were placed in petri dishes lined with moist filter paper and inoculated with ten 3rd instar larvae. Mortality was recorded 72 hours after treatment. Feeding damages were also recorded using a scale of 0-100%.

SMILES	mortality at 300 ppm (Spodoptera eridania) [%]	mortality at 300 ppm (Plutella xylostella) [%]
CC(NC(=O)c1cc(Br)cc(C(F)(F)F)c1)c1nccnc1-n1ncn(C)c1=O (stereo not shown) [I-1, 3-bromo-N-[1-[3-(4-methyl-5-oxo-1,2,4-triazol-1-yl)pyrazin-2-yl]ethyl]-5-(trifluoromethyl)benzamide]	≥ 75	≥ 75
CC(NC(=O)c1cc(Br)cc(C(F)(F)F)c1)c1nccnc1-n1ncn(CC(F)(F)F)c1=O (stereo not shown) [I-2, 3-bromo-N-[1-[3-[5-oxo-4-(2,2,2-trifluoroethyl)-1,2,4-triazol-1-yl]pyrazin-2-yl]ethyl]-5-(trifluoromethyl)benzamide]	≥ 75	≥ 75
